PMC8780580, “The Neuroactive Steroid Pregnanolone Glutamate: Anticonvulsant Effect, Metabolites and Its Effect on Neurosteroid Levels in Developing Rat Brains” (Pharmaceuticals, 2021)
Where a name gives a salt, the structure may show the parent alone.

How the values were obtained:
[1] = Steroidomic (GC-MS/MS) analysis of hippocampal tissue after PA-G administration; details: for measurable concentration in the rat brain / increase in concentration compared with basal levels: after PA-G i.p.; for fold increase in the concentration in the rat hippocampus above the basal levels / percentage of total significantly increased (5β) steroids in the rat hippocampus / concentration at 20 min: 20 min after PA-G i.p., 1 mg/kg in CDX; for concentration at 20 min: male, Wistar, rat, in vivo, ip, Steroid concentration in hippocampal tissue, PA-G-Treated (P);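 for all read-outs here: hippocampal steroids quantified by GC-MS/MS, covering free and conjugated forms after hydrolysis, compared against intact rats and rats injected with CDX vehicle alone, five animals per group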
Method: In a separate experiment, samples of the hippocampus were obtained from male albino Wistar rats in 6 experimental groups consisting of P12 and P25 animals that were either intact (I), controls (C, i.p. application of a solution of CDX), or in the experimental group (i.p. application of PA-G in a solution of CDX at a dose of 1 mg/kg). Each group consisted of 5 animals. The animals were sacrificed using ether anaesthesia (Penta, Czech Republic) 30 min after administration of the drug. The hippocampi were quickly removed, weighed, and frozen at −80 °C in sterile plastic microvials until analysis.
An amount of 17–100 mg of the hippocampal tissue was minced and then administered into screw-cap tubes. Next, 2 mL of methanol with a mixture of internal standards was added, and the samples were incubated for 1 week in a refrigerator at 4 °C with agitation for 2 min once a day. Afterwards, the extract was transferred into new screw-cap tubes and dried in a vacuum centrifuge at 45 °C. After that, 1 mL of water of chromatographic purity was added, and the samples were further treated as described in our recently published paper [76].
Briefly, the unconjugated steroids were extracted from a testing sample with diethyl-ether, the extract was dried, and the lipids were separated by partitioning between a mixture of methanol with water (4:1, v/v) and pentane. The pentane phase was discarded, and the polar phase was dried and used for further analysis of the unconjugated steroids. Steroid conjugates remaining in the polar residue after diethyl ether were hydrolyzed to their parent hydroxy steroids (unconjugated molecules) and analyzed.

GABAARs = system: GABAARs; set-up: method as in PMID 29886074; details: isolated pyramidal neurons of the rat hippocampus, cited from earlier work
NMDARs = details: NMDA-induced currents, transfected HEK293 cells; cited from earlier work
[2] = system: pentylenetetrazol-induced seizures; experiment: Pentylenetetrazol (PTZ)-induced seizures in 12- and 25-day-old rats; assay type: in vivo, male Wistar albino rats; details: for incidence of generalized seizures (GS): i.p. 20 mg/kg (highest dose tested)
Method: Solutions of PA-G and PA-S were administered intraperitoneally at a concentration of 1 mg/mL, and doses of 1, 5, 10, and 20 mg/kg were used. The solutions of zuranolone were administered intraperitoneally at a concentration of 1 mg/mL, and doses of 0.5, 1, 5, and 10 mg/kg were used. Controls were injected with CDX solution in a volume corresponding to the highest dose (i.e., 20 mL/kg). The same control group was used for PA-S and PA-G. Pentylenetetrazol (PTZ, Sigma Aldrich, Gillingham, Dorset, UK) was dissolved in water in a concentration of 50 mg/mL and was administered subcutaneously at a dose of 100 mg/kg 20 min after the administration of PA-G or PA-S. Each age and dose group comprised 8 animals. The rats were placed individually into plexiglass boxes and were then observed for 30 min after PTZ injection. The incidence, severity, and latencies of seizures were assessed. Younger animals were placed on a pad heated to 34 °C, i.e., to the temperature in the nest for the whole duration of the experiment because of immature thermoregulation. Generalized tonic-clonic or clonic seizures with a loss of righting reflexes were present after a dose of 100 mg/kg of PTZ in all control animals in both age groups. […] The severity of seizures was quantified using a five-point scale as follows: 0—no changes; 0.5—abnormal behaviour (e.g., automatisms, increased orienting reaction); 1—isolated myoclonic jerks; 2—atypical or prolonged minimal seizures; 3—clonic seizures (mS) involving head and forelimb muscles with preserved righting reflexes (older-term minimal pentetrazol seizures); 4—generalized seizures without the tonic phase (GCS); 5—complete generalized tonic-clonic seizures (GTCS).

[3] = P12 rats, i.p. doses of 5 and 10 mg/kg

Molecule	fold increase in the concentration in the rat hippocampus above the basal levels ([1]; P12) [x]	fold increase in the concentration in the rat hippocampus above the basal levels ([1]; P25) [x]	percentage of total significantly increased (5β) steroids in the rat hippocampus ([1]; P25)	percentage of total significantly increased (5β) steroids in the rat hippocampus ([1]; P12) [%]	concentration at 20 min ([1]; 1 mg/kg, 12-day-old rats) [ng/g]	concentration at 20 min ([1]; 1 mg/kg, 25-day-old rats) [ng/g]	further results
17α-hydroxyprogesterone							measurable concentration in the rat brain ([1]; 1 mg/kg): did not detect measurable concentrations
C[C@]12CC[C@@H](O)C[C@H]1CC[C@@H]1[C@@H]2[C@@H](O)C[C@]2(C)[C@@H](C(=O)CO)CC[C@@H]12 [3α,5β-THCC, 3α,5β-tetrahydrocorticosterone]	4.47	1	less than 0.01%				percentage of total significantly increased (5β) steroids in the rat hippocampus ([1]; P12, 1 mg/kg): approximately 8%; percentage of total significantly increased (5β) steroids in the rat hippocampus ([1]; P12, listed as 3α,5β-Tetrahydrocorticosterone (3α,5β-THCC), 1 mg/kg): 8.12%
C[C@H](O)[C@@]1(O)CCC2C3CC[C@@H]4C[C@H](O)CC[C@]4(C)C3CC[C@@]21C (stereo partly drawn) [3α,17α,20α-Trihydroxy-5β-pregnane]	9.16	2.39	1.05%	0.74	5.86	0.951	
C[C@H](O)[C@H]1CCC2C3CC[C@@H]4C[C@H](O)CC[C@]4(C)C3CC[C@@]21C (stereo partly drawn) [3α,20α-Dihydroxy-5β-pregnane]	78.1	15.7	1.72%	1.23	8.42	0.919	
CC(=O)[C@H]1CCC2C3CC[C@@H]4CC(=O)CC[C@]4(C)C3CC[C@@]21C (stereo partly drawn) [5β-Dihydroprogesterone, 5β-dihydroprogesterone]	19	1.9	0.09%	0.07	0.477	0.0943	
CC(=O)[C@@]1(O)CCC2C3CC[C@H]4C[C@H](O)CC[C@]4(C)C3CC[C@@]21C (stereo partly drawn) [17-Hydroxyallopregnanolone]					8.36	3.19	
CC(=O)[C@@]1(O)CC[C@H]2[C@@H]3CC[C@@H]4C[C@H](OC(=O)[C@@H](N)CCC(=O)O)CC[C@]4(C)[C@H]3CC[C@@]21C [17-Hydroxypregnanolone glutamate]	84.6	14.7	0.015%	0.04			
CC(=O)[C@@]1(O)CC[C@H]2[C@@H]3CC=C4CCCC[C@]4(C)[C@H]3CC[C@@]21C [17α-hydroxypregn-5-en-20-one]							measurable concentration in the rat brain ([1]; 1 mg/kg): did not detect measurable concentrations
C[C@H](O)[C@H]1CC[C@H]2[C@@H]3CC[C@@H]4C[C@H](OC(=O)[C@@H](N)CCC(=O)O)CC[C@]4(C)[C@H]3CC[C@]12C [(20S)-Hydroxypregnanolone glutamate]	99.7	10.2	0.93%	0.53			
CC(=O)[C@H]1CC[C@H]2[C@@H]3CC[C@H]4C[C@H](O)CC[C@]4(C)[C@H]3CC[C@]12C [Allopregnanolone, allopregnanolone]					0.246	0.144	
C[C@]12CC[C@H](OS(=O)(=O)O)CC1=CCC1C2CC[C@@]2(C)C1CC[C@@H]2O (stereo partly drawn) [Androstenediol sulfate, androstenediol sulfate]					6.07	1.62	
C[C@]12CC[C@H]3[C@@H](CC=C4C[C@@H](O)CC[C@@]43C)[C@@H]1CC[C@@H]2O [Androstenediol, androstenediol]					0.758	0.364	
C[C@]12CC[C@H](O)CC1=CC[C@@H]1[C@@H]2CC[C@]2(C)C(=O)CC[C@@H]12 [Dehydroepiandrosterone (DHEA), dehydroepiandrosterone]					1.13	0.644	
C[C@]12CC[C@@H](O)C[C@H]1CC[C@@H]1[C@@H]2CC[C@]2(C)C(=O)CC[C@@H]12 [Etiocholanolone (ETIO), etiocholanolone]			0.08%	0.1			increase in concentration compared with basal levels ([1]; P12 animals, 1 mg/kg): ~12 fold; increase in concentration compared with basal levels ([1]; P25 animals, 1 mg/kg): ~2 fold
CC(=O)[C@H]1CC[C@H]2[C@@H]3CC[C@@H]4C[C@H](O)CC[C@]4(C)[C@H]3CC[C@]12C [PA, pregnanolone]	272	12.8	9.30%	9.47	63.6	5.02	increase in concentration compared with basal levels ([1]; P12 animals, 1 mg/kg): up to 272 fold; percentage of the brain's total 5β-steroids in the hippocampus after PA-G administration ([1]; stated over P12 and P25 animals, 20 min after PA-G): approximately 10%
CC(=O)[C@H]1CCC2C3CC[C@@H]4C[C@H](OC(=O)[C@@H](N)CCC(=O)O)CC[C@]4(C)C3CC[C@@]21C (stereo partly drawn) [PA-G, 20-oxo-5β-pregnan-3α-yl L-glutamyl 1-ester]	199	9.76	10.8%	6.04			maximum potentiation of IGABA peak amplitude (GABAARs): up to 422%; EC50 (GABAARs; read-out: EC50 (increase of IGABA peak)): 7 µM; IC50 (NMDARs): 73 µM; latencies of GS ([2]; P12 rats, Kruskal-Wallis over dose groups): increase in the latencies of GS; incidence of generalized seizures (GS) ([2]; P12 rats): prevented the development of GS in all animals; seizure severity ([2]; P12 rats, i.p. 1, 5, 10, 20 mg/kg, Kruskal-Wallis over dose groups): suppressed seizure severity; tonic phase (TP) of GTCS [2, 3]: completely abolished TP; seizure severity ([2]; P25 rats, Kruskal-Wallis over dose groups): affected seizure severity; latencies of GS ([2]; P25 rats, i.p. 10 mg/kg): prolonged; incidence of GTCS ([2]; P25 rats, i.p. 20 mg/kg): completely suppressed these seizures; seizure severity (score) ([2]; P25 rats, i.p. 20 mg/kg): decreased score
CC(=O)[C@H]1CC[C@H]2[C@@H]3CC[C@@H]4C[C@H](OS(=O)(=O)O)CC[C@]4(C)[C@H]3CC[C@]12C [PA-S, pyridinium 20-oxo-5β-pregnan-3α-yl sulfate]							IC50 (NMDARs): 24 µM; incidence of generalized seizures (GS) ([2]; P12 rats): completely eliminated GS; seizure severity ([2]; P12 rats, i.p. doses of 5 mg/kg and higher, 20 min before PTZ 100 mg/kg s.c.): significant decrease in seizure severity; latencies of GS [2, 3]: significantly prolonged the latencies of GS; tonic phase (TP) of GTCS [2, 3]: completely abolished TP; parameters of minimal seizures (mS) ([2]; P25 rats): did not affect any parameters of mS; tonic phase (TF) of GTCS ([2]; P25 rats): did not exhibit specific effects against the TF of GTCS; incidence of GS ([2]; P25 rats, chi2 test over dose groups, Fisher's tests no differences between individual groups): affected the incidence of GS; seizure severity (score) ([2]; P25 rats, i.p. 20 mg/kg): lower score
CC(=O)[C@H]1CCC2C3CC=C4C[C@@H](O)CC[C@]4(C)C3CC[C@@]21C (stereo partly drawn) [Pregnenolone (PE), pregnenolone]					4.69	3.44	
